Results: patent US6420383B1, “Thiepino[3,2-b]dihydropyridines and related compositions and methods” (Ortho-McNeil Pharmaceutical, Inc., priority 2000, dated 2002)

target: T1, calcium channel (3H-nitrendipine binding, heart membranes) (Oryctolagus cuniculus, UniProt P15381); test: Assay for inhibition of nitrendipine binding (calcium channel antagonist activity); details: 3H-nitrendipine 0.05-0.50 nM, rabbit heart membranes, 90 minutes at 4° C.
T1 construct: from tissue; host or cells: rabbit heart membrane preparation
Protocol: Female, New Zealand white rabbits (1-2 kg) are sacrificed by cervical dislocation, and the heart is immediately removed, cleaned and chopped into small pieces. The tissue is homogenized in 5×times volume of 0.05M Hepes buffer, pH 7.4. The homogenate is centrifuged at 4000 g for 10 minutes, and the supernatant is re-centrifuged at 42,000×g for 90 minutes. The resulting membrane pellet is re-suspended (0.7 ml/g weight) in 0.05M Hepes, pH 7.4 and stored at […] until used. Each tube of the binding assay contains ^3H-nitrendipine (0.05-0.50 nM), buffer, membranes (0.10 ml), and test compound in a total volume of 1.0 ml. After 90 minutes at 4° C., the bound nitrendipine is separated from the unbound by filtration on Whatman GF/C filters. After rinsing, the filters are dried and counted in a liquid scintillation counter.
Non-specific binding of ^3H-nitrendipine (that amount bound in the presence of excess unlabelled nitrendipine) is subtracted from the total bound to obtain specifically bound radiolabeled nitrendipine. The amount of specifically bound nitrendipine in the presence of a test compound is compared to that amount bound in the absence of a compound. A percent displacement (or inhibition) can then be calculated.

T1 sequence (P15381 whole entry, other chains not shown): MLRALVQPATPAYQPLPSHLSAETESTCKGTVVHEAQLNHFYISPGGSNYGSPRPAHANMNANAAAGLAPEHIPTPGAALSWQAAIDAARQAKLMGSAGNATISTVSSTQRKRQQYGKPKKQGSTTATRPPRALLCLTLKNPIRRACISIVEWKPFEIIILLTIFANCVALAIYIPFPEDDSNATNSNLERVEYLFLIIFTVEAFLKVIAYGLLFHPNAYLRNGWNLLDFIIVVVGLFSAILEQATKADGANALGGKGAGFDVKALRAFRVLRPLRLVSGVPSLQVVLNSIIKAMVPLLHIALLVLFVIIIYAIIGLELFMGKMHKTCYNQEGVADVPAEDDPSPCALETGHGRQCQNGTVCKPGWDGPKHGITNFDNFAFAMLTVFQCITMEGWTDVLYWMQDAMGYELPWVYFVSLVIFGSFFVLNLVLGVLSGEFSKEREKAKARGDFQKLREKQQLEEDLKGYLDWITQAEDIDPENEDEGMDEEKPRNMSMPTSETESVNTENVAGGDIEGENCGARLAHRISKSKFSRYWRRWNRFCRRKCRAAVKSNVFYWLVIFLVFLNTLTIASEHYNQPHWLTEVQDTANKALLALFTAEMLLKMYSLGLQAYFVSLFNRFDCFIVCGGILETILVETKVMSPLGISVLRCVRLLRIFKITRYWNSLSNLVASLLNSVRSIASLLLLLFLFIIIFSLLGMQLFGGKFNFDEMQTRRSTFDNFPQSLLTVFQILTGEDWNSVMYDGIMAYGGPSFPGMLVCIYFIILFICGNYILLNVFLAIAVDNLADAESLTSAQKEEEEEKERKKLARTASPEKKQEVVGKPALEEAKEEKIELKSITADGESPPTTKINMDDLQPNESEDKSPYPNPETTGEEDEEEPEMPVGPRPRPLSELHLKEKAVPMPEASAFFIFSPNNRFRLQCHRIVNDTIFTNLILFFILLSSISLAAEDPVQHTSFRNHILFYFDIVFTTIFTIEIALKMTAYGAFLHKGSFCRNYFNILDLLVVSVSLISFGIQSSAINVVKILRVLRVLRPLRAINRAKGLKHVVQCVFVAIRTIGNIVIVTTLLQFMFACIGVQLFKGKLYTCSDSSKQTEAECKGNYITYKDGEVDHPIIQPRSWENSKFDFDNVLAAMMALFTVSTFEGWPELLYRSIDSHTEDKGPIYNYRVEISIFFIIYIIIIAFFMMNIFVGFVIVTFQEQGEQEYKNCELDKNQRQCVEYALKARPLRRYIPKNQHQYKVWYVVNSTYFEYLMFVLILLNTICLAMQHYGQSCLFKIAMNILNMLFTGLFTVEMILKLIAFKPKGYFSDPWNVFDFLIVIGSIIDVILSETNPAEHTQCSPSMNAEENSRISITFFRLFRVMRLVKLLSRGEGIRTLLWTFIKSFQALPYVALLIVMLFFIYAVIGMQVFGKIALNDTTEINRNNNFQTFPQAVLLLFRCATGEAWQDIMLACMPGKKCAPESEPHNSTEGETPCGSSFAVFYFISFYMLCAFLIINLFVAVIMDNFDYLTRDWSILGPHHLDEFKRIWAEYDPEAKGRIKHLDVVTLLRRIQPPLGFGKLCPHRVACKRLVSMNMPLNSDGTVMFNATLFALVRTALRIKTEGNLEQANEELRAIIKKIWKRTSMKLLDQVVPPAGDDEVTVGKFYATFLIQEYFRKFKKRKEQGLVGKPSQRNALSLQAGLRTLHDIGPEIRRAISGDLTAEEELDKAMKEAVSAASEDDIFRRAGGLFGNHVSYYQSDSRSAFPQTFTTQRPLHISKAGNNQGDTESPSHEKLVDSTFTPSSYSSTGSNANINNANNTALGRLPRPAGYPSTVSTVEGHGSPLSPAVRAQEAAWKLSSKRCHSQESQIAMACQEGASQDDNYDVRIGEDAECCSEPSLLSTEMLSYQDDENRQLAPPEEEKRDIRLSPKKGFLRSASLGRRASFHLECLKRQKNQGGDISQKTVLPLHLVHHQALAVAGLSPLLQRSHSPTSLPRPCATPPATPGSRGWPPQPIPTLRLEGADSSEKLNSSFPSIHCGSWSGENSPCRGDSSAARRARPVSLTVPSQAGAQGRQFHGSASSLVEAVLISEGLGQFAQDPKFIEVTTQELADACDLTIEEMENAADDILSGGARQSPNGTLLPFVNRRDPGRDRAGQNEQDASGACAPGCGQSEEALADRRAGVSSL
T1 sequence (P13806 27-960 partner limits assumed, other chains not shown): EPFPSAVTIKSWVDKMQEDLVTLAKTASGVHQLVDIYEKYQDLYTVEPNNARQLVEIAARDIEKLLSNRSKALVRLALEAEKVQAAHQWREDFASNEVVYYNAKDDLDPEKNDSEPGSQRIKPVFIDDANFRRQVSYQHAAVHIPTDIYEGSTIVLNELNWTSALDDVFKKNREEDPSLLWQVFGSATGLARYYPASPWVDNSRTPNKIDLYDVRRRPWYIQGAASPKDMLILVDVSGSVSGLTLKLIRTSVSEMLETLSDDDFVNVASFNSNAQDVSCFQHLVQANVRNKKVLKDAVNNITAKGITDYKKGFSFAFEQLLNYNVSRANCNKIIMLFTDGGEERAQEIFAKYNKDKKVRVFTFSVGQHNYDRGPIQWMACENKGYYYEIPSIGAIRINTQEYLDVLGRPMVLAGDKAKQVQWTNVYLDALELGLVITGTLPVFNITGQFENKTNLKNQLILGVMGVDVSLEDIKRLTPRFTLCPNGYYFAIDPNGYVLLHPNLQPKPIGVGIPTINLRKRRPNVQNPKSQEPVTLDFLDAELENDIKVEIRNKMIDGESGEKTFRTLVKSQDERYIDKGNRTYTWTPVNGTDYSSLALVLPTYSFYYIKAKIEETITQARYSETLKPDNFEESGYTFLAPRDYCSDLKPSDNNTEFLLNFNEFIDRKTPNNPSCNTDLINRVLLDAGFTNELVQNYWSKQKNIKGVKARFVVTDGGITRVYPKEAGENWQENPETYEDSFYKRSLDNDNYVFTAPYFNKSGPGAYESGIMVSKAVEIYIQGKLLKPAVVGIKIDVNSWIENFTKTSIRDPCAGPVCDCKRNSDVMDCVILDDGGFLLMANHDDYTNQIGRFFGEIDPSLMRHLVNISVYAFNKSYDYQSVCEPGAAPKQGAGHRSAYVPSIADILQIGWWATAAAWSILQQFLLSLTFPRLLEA
T1 sequence (P13806 961-1106 partner limits assumed, other chains not shown): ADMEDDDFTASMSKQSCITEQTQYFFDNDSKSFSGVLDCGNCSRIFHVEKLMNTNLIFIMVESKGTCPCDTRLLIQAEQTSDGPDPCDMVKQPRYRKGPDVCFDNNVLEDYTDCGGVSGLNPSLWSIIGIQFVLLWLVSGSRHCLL

| SMILES | IC50 |
| --- | --- |
| CCOC(=O)C1=C(c2ccccc2)NC2=C(C1c1ccc(Cl)cc1)S(=O)(=O)CCCC2 (centres unmarked) [Compound 1, Thiepino[3,2-b]pyridine-3-carboxylic acid, 4-(4-chlorophenyl)-1,4,6,7,8,9-hexahydro-2-phenyl-, ethyl ester, 5,5-dioxide] | 2000 nM |
| CCOC(=O)C1=C(c2ccccc2)NC2=C(C1c1cccc([N+](=O)[O-])c1)S(=O)(=O)CCCC2 (centres unmarked) [Compound 11, Thiepino[3,2-b]pyridine-3-carboxylic acid, 1,4,6,7,8,9-hexahydro-4-(3-nitrophenyl)-2-phenyl-, ethyl ester, 5,5-dioxide] | 6950 nM |
| CCOC(=O)C1=C(c2ccccc2)NC2=C(C1c1c(O)cccc1Cl)S(=O)(=O)CCCC2 (centres unmarked) [Compound 7, Thiepino[3,2-b]pyridine-3-carboxylic acid, 4-(2-chloro-6-hydroxyphenyl)-1,4,6,7,8,9-hexahydro-2-phenyl-, ethyl ester, 5,5-dioxide] | 2000 nM |
| CC1=C(C(=O)OCCN(C)Cc2cccs2)C(c2cccc([N+](=O)[O-])c2)C2=C(CCCCS2(=O)=O)N1 (centres unmarked) [Compound 13, Thiepino[3,2-b]pyridine-3-carboxylic acid, 1,4,6,7,8,9-hexahydro-2-methyl-4-(3-nitrophenyl)-, 2-[methyl(2-thienylmethyl)amino]ethyl ester, 5,5-dioxide] | 7.1 nM |
| CCOC(=O)C1=C(c2cccs2)NC2=C(C1c1cccc([N+](=O)[O-])c1)S(=O)(=O)CCCC2 (centres unmarked) [Compound 20, Thiepino[3,2-b]pyridine-3-carboxylic acid, 1,4,6,7,8,9-hexahydro-4-(3-nitrophenyl)-2-(2-thienyl)-, ethyl ester, 5,5-dioxide] | 6540 nM |
| CCOC(=O)C1=C(c2cccnc2)NC2=C(C1c1ccccc1Cl)S(=O)(=O)CCCC2 (centres unmarked) [Compound 21, Thiepino[3,2-b]pyridine-3-carboxylic acid, 4-(2-chlorophenyl)-1,4,6,7,8,9-hexahydro-2-(3-pyridinyl)-, ethyl ester, 5,5-dioxide] | 2000 nM |
| CC1=C(C(=O)OCCN(C)Cc2cccs2)C(c2c(F)cccc2Cl)C2=C(CCCCS2(=O)=O)N1 (centres unmarked) [Compound 9, Thiepino[3,2-b]pyridine-3-carboxylic acid, 4-(2-chloro-6-fluorophenyl)-1,4,6,7,8,9-hexahydro-2-methyl-, 2-[methyl(2-thienylmethyl)amino]ethyl ester, 5,5-dioxide] | 29.5 nM |
| CC1=C(C(=O)OCCN(C)Cc2ccsc2)C(c2c(O)cccc2Cl)C2=C(CCCCS2(=O)=O)N1 (centres unmarked) [Compound 25, Thiepino[3,2-b]pyridine-3-carboxylic acid, 4-(2-chloro-6-hydroxyphenyl)-1,4,6,7,8,9-hexahydro-2-methyl-, 2-[methyl(3-thienylmethyl)amino]ethyl ester, 5,5-dioxide] | 815 nM |
| CC1=C(C(=O)OCCN(C)Cc2cccs2)C(c2c(F)c(F)c(F)c(F)c2F)C2=C(CCCCS2(=O)=O)N1 (centres unmarked) [Compound 12, Thiepino[3,2-b]pyridine-3-carboxylic acid, 1,4,6,7,8,9-hexahydro-2-methyl-4-(2,3,4,5,6-pentafluorophenyl)-, 2-[methyl(2-thienylmethyl)amino]ethyl ester, 5,5-dioxide] | 5.9 nM |
| CC1=C(C(=O)OCCN(C)Cc2ccsc2)C(c2cccc([N+](=O)[O-])c2)C2=C(CCCCS2(=O)=O)N1 (centres unmarked) [Compound 26, Thiepino[3,2-b]pyridine-3-carboxylic acid, 1,4,6,7,8,9-hexahydro-2-methyl-4-(3-nitrophenyl)-, 2-[methyl(3-thienylmethyl)amino]ethyl ester, 5,5-dioxide] | 51 nM |
| CCOC(=O)C1=C(c2cccs2)NC2=C(C1c1ccccc1Cl)S(=O)(=O)CCCC2 (centres unmarked) [Compound 15, Thiepino[3,2-b]pyridine-3-carboxylic acid, 4-(2-chlorophenyl)-1,4,6,7,8,9-hexahydro-2-(2-thienyl)-, ethyl ester, 5,5-dioxide] | 2500 nM |
| CCOC(=O)C1=C(c2cccnc2)NC2=C(C1c1cccc(C(F)(F)F)c1F)S(=O)(=O)CCCC2 (centres unmarked) [Compound 23, Thiepino[3,2-b]pyridine-3-carboxylic acid, 4-[2-fluoro-3-(trifluoromethyl)phenyl]-1,4,6,7,8,9-hexahydro-2-(3-pyridinyl)-, ethyl ester, 5,5-dioxide] | 2000 nM |
| CCOC(=O)C1=C(c2cccnc2)NC2=C(C1c1cccc(Cl)c1)S(=O)(=O)CCCC2 (centres unmarked) [Compound 22, Thiepino[3,2-b]pyridine-3-carboxylic acid, 4-(3-chlorophenyl)-1,4,6,7,8,9-hexahydro-2-(3-pyridinyl)-, ethyl ester, 5,5-dioxide] | 2000 nM |
| CCOC(=O)C1=C(c2ccccc2)NC2=C(C1c1c(F)c(F)c(F)c(F)c1F)S(=O)(=O)CCCC2 (centres unmarked) [Compound 10, Thiepino[3,2-b]pyridine-3-carboxylic acid, 1,4,6,7,8,9-hexahydro-4-(2,3,4,5,6-pentafluorophenyl)-2-phenyl-, ethyl ester, 5,5-dioxide] | 684 nM |
| COC(=O)C1=C(c2ccccc2)NC2=C(C1c1cccc(Cl)c1)S(=O)(=O)CCCC2 (centres unmarked) [Compound 3, Thiepino[3,2-b]pyridine-3-carboxylic acid, 4-(3-chlorophenyl)-1,4,6,7,8,9-hexahydro-2-phenyl-, methyl ester, 5,5-dioxide] | 2000 nM |
| CCOC(=O)C1=C(c2cccs2)NC2=C(C1c1cccc(Cl)c1)S(=O)(=O)CCCC2 (centres unmarked) [Compound 16, Thiepino[3,2-b]pyridine-3-carboxylic acid, 4-(3-chlorophenyl)-1,4,6,7,8,9-hexahydro-2-(2-thienyl)-, ethyl ester, 5,5-dioxide] | 2300 nM |
| CC1=C(C(=O)OCCN(C)Cc2cccs2)C(c2ccccc2Cl)C2=C(CCCCS2(=O)=O)N1 (centres unmarked) [Compound 14, Thiepino[3,2-b]pyridine-3-carboxylic acid, 4-(2-chlorophenyl)-1,4,6,7,8,9-hexahydro-2-methyl-, 2-[methyl(2-thienylmethyl)amino]ethyl ester, 5,5-dioxide] | 15 nM |

Further lines, results first:

| IC50 | SMILES |
| --- | --- |
| 500 nM | CN(CCOC(=O)C1=C(c2ccccc2)NC2=C(C1c1ccccc1Cl)S(=O)(=O)CCCC2)Cc1cccs1 (centres unmarked) [Compound 17, Thiepino[3,2-b]pyridine-3-carboxylic acid, 4-(2-chlorophenyl)-1,4,6,7,8,9-hexahydro-2-phenyl-, 2-[methyl(2-thienylmethyl)amino]ethyl ester, 5,5-dioxide] |
| 580 nM | CCOC(=O)C1=C(c2ccccc2)NC2=C(C1c1ccccc1Cl)S(=O)(=O)CCCC2 (centres unmarked) [Compound 8, Thiepino[3,2-b]pyridine-3-carboxylic acid, 4-(2-chlorophenyl)-1,4,6,7,8,9-hexahydro-2-phenyl-, ethyl ester, 5,5-dioxide] |
| 2000 nM | CN(CCOC(=O)C1=C(c2ccccc2)NC2=C(C1c1c(O)cccc1Cl)S(=O)(=O)CCCC2)Cc1ccccc1 (centres unmarked) [Compound 5, Thiepino[3,2-b]pyridine-3-carboxylic acid, 4-(2-chloro-6-hydroxyphenyl)-1,4,6,7,8,9-hexahydro-2-phenyl-, 2-[methyl(phenylmethyl)amino]ethyl ester, 5,5-dioxide] |
| 1290 nM | CN(CCOC(=O)C1=C(c2ccccc2)NC2=C(C1c1cccc(Cl)c1)S(=O)(=O)CCCC2)Cc1cccs1 (centres unmarked) [Compound 19, Thiepino[3,2-b]pyridine-3-carboxylic acid, 4-(3-chlorophenyl)-1,4,6,7,8,9-hexahydro-2-phenyl-, 2-[methyl(2-thienylmethyl)amino]ethyl ester, 5,5-dioxide] |
| 192 nM | CN(CCOC(=O)C1=C(c2ccccc2)NC2=C(C1c1cccc(Cl)c1)S(=O)(=O)CCCC2)Cc1ccccc1 (centres unmarked) [Compound 4, Thiepino[3,2-b]pyridine-3-carboxylic acid, 4-(3-chlorophenyl)-1,4,6,7,8,9-hexahydro-2-phenyl-, 2-[methyl(phenylmethyl)amino]ethyl ester, 5,5-dioxide] |
| 115 nM | CCOC(=O)C1=C(c2ccccc2)NC2=C(C1c1cccc(Cl)c1Cl)S(=O)(=O)CCCC2 (centres unmarked) [Compound 2, Thiepino[3,2-b]pyridine-3-carboxylic acid, 4-(2,3-dichlorophenyl)-1,4,6,7,8,9-hexahydro-2-phenyl-, ethyl ester, 5,5-dioxide] |
| 312 nM | CN(CCOC(=O)C1=C(c2ccccc2)NC2=C(C1c1ccccc1Cl)S(=O)(=O)CCCC2)Cc1ccccc1 (centres unmarked) [Compound 6, Thiepino[3,2-b]pyridine-3-carboxylic acid, 4-(2-chlorophenyl)-1,4,6,7,8,9-hexahydro-2-phenyl-, 2-[methyl(phenylmethyl)amino]ethyl ester, 5,5-dioxide] |
| 26000 nM | CN(CCOC(=O)C1=C(c2ccccc2)NC2=C(C1c1cccc([N+](=O)[O-])c1)S(=O)(=O)CCCC2)Cc1cccs1 (centres unmarked) [Compound 18, Thiepino[3,2-b]pyridine-3-carboxylic acid, 1,4,6,7,8,9-hexahydro-4-(3-nitrophenyl)-2-phenyl-, 2-[methyl(2-thienylmethyl)amino]ethyl ester, 5,5-dioxide] |
| 149 nM | CC1=C(C(=O)OCCN(C)Cc2ccsc2)C(c2ccccc2Cl)C2=C(CCCCS2(=O)=O)N1 (centres unmarked) [Compound 24, Thiepino[3,2-b]pyridine-3-carboxylic acid, 4-(2-chlorophenyl)-1,4,6,7,8,9-hexahydro-2-methyl-, 2-[methyl(3-thienylmethyl)amino]ethyl ester, 5,5-dioxide] |
